Tests used:
[1] = tested on: Radical scavenging activity; assay: Antioxidant activity assessed as inhibition of DPPH radical after 30 mins by spectrophotometric analysis; assay type: functional
MCF7 = assay: Cytotoxicity against human MCF7 cells after 96 hrs by MTT assay; assay type: functional, cell-based; settings: MCF7, 96 h

IC50 [1] [µM]	Compound	IC50 (MCF7) [µM]
634	Cc1ccc(C2C(C#N)=C(N)Oc3cc(C)oc(=O)c32)cc1 (configuration not stated)	54
520	COc1ccc(C2C(C#N)=C(N)Oc3cc(C)oc(=O)c32)cc1 (configuration not stated)	57
816	Cc1cc2c(c(=O)o1)C(c1ccc([N+](=O)[O-])cc1)C(C#N)=C(N)O2 (configuration not stated)	42
487	Cc1cc2c(c(=O)o1)C(c1ccc(Cl)cc1)C(C#N)=C(N)O2 (configuration not stated)	32
512	Cc1cc2c(c(=O)o1)C(c1ccc(Br)cc1)C(C#N)=C(N)O2 (configuration not stated)	35

The remaining lines, values behind:

Compound	IC50 [1] [µM]	IC50 (MCF7) [µM]
Cc1cc2c(c(=O)o1)C(c1cccs1)C(C#N)=C(N)O2 (configuration not stated)	739	15
Cc1cc2c(c(=O)o1)C(c1ccco1)C(C#N)=C(N)O2 (configuration not stated)	228	27
Cc1cc2c(c(=O)o1)C(c1ccc(C)s1)C(C#N)=C(N)O2 (configuration not stated)	943	22
Cc1cc2c(c(=O)o1)C(c1ccc(Cl)s1)C(C#N)=C(N)O2 (configuration not stated)	616	12
Cc1cc2c(c(=O)o1)C(c1c[nH]c3ccccc13)C(C#N)=C(N)O2 (configuration not stated)	339	10
Cc1cc2c(c(=O)o1)C(c1c[nH]c3ccc(C#N)cc13)C(C#N)=C(N)O2 (configuration not stated)	567	7
Cc1cc2c(c(=O)o1)C(c1c[nH]c3ccc(Br)cc13)C(C#N)=C(N)O2 (configuration not stated)	440	5
Cc1cc2c(c(=O)o1)C(c1ccccc1)C(C#N)=C(N)O2 (configuration not stated)	769	46
O=C1O[C@H]([C@@H](O)CO)C(O)=C1O [ASCORBIC ACID]	106	

Reference: ChEMBL document CHEMBL3045549, “Solvent-free, green and efficient synthesis of pyrano[4, 3-b]pyrans by grinding and their biological evaluation as antitumor and antioxidant agents” (Med Chem Res, 2013)
